The target of test [1] is T1, Thymidine phosphorylase (Homo sapiens, UniProt P19971).
T1 sequence (P19971 whole entry): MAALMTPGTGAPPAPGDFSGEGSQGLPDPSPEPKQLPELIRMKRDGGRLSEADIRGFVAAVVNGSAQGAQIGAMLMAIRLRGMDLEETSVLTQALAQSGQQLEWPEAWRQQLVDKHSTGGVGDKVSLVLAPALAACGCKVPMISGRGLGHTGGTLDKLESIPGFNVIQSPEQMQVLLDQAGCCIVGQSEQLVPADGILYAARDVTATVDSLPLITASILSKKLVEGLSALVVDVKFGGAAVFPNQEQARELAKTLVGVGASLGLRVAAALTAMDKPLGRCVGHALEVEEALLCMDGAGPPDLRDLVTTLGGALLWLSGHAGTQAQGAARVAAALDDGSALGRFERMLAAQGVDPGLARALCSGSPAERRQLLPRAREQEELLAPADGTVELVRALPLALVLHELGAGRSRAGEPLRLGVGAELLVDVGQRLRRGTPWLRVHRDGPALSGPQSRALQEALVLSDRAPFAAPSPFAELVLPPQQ
The experiment in a line: Inhibition of catabolic activity of human thymidine phosphorylase.

Test [2] deals with T1, Thymidine phosphorylase. The experiment in a line: Inhibition of anabolic activity of human thymidine phosphorylase.
The target of test [3] is T2, Thymidine phosphorylase (Homo sapiens) (UniProt P19971).
T2 sequence (whole entry): T1 sequence (P19971 whole entry)
The experiment in a line: Percent inhibition by compound was measured on Human Thymidine Phosphorylase using 100 uM thymine.

In general, IC50 refers to the concentration that gives 50% inhibition. For the molecule `Oc1cc(NCCc2ccccc2)nc(O)n1`, the values for the IC50 in test [1] and in test [2] were 148 µM and 200 µM, respectively. As usually defined, the inhibition is how much of the control response was suppressed. Molecule `Nc1cc(O)nc(O)n1` had an inhibition in test [3] of 41%. For `O=c1cc(NCc2ccccc2)[nH]c(=O)[nH]1`, the IC50 in test [1] was above 200 µM.
